Laboratory results as given in paper PMC10888562 (International Journal of Molecular Sciences, 2024).
Several values for one entry are separate records, joined by “and”; a condition that tells them apart may be missing. Equal values may be shown once. Read-outs that look alike come from different tables or passages of the source.

Legend:
[1] = test system: multiple human cell lines; parameters: method as in PMID 36142383, PMID 37173934, PMID 36296713; settings: average over all cell lines; cited from earlier work
HT29 colon = test system: HT29 colon; parameters: method as in PMID 36142383, PMID 37173934, PMID 36296713; settings: cited from earlier work
[2] = test system: cisplatin-resistant ADDP ovarian variant; parameters: method as in PMID 36142383, PMID 37173934, PMID 36296713; settings: cited from earlier work
H460 lung = test system: H460 lung; parameters: method as in PMID 36142383, PMID 37173934, PMID 36296713; settings: cited from earlier work
Du145 prostate = test system: Du145 prostate; parameters: method as in PMID 36142383, PMID 37173934, PMID 36296713; settings: cited from earlier work
A431 skin = test system: A431 skin; parameters: method as in PMID 36142383, PMID 37173934, PMID 36296713; settings: cited from earlier work
BE2-C neuroblastoma = test system: BE2-C neuroblastoma; parameters: method as in PMID 36142383, PMID 37173934, PMID 36296713; settings: cited from earlier work
SJ-G2 glioblastoma = test system: SJ-G2 glioblastoma; parameters: method as in PMID 36142383, PMID 37173934, PMID 36296713; settings: cited from earlier work
MCF-7 breast = test system: MCF-7 breast; parameters: method as in PMID 36142383, PMID 37173934, PMID 36296713; settings: cited from earlier work
MIA pancreas = test system: MIA pancreas; parameters: method as in PMID 36142383, PMID 37173934, PMID 36296713; settings: cited from earlier work
U87 glioblastoma = test system: U87 glioblastoma; parameters: method as in PMID 36142383, PMID 37173934, PMID 36296713; settings: cited from earlier work
A2780 ovarian = test system: A2780 ovarian; parameters: method as in PMID 36142383, PMID 37173934, PMID 36296713; settings: cited from earlier work
[3] = test system: histone deacetylase (HDAC); experiment: Fluorometric HDAC activity assay on extracts of treated HT29 cells; format: cell-based, human; settings: HT29 colon cells treated 72 h at GI50 concentration, lower RFU = decline in HDAC activity, HT29 extract control 5154 ± 40
Method: All values are expressed as RFU.
To study the HDAC activity in HT29 treated cells, a Fluorometric HDAC Activity Assay Kit ab156064 (Abcam, Cambridge, MA, USA) was used and all sample preparations were made based on the manufacturer’s protocol. A total of 10^6 cells/mL of HT29 cells were seeded in DMEM with serum deprivation for 18 h to synchronise the cells. […] Cells were then washed with cold PBS and resuspended in lysis buffer (10 mM Tris HCl (pH 7.5), 10 mM NaCl, 15 mM MgCl2, 250 mM sucrose, 0.5% NP-40 and 0.1 mM EGTA) and lysed on ice for 20 min. Cells were centrifuged through 4 mL of sucrose cushion (30% sucrose, 10mM Tris HCl (pH 7.5), 10 mM NaCl and 3mM MgCl2) at 1300× g for 10 min at 4 °C. Supernatant was discarded and the pellet was washed and resuspended in extraction buffer (50 mM HEPES-KOH (pH 7.5), 420 mM NaCl, 0.5 mM EDTA 2Na, 0.1 mM EGTA and 10% glycerol) and then sonicated for 30 s. Nuclei were lysed for 30 min on ice and centrifuged at 20,000× g for 30 min. The supernatant was collected, and the samples were prepared for the fluorometric assay according to the manufacturer’s protocol (Histone Deacetylase (HDAC) Activity Assay Fluorometric Kit ab156064, Abcam). The changes in the relative fluorescence intensity (expressed as RFU) were recorded each minute over 60 min using the Glo-Max®-Multimode microplate reader (Promega Corporation, Alexandra, VIC, Australia) at an excitation/emission of 355/460 nm.

HT29 colon cells [4] = experiment: TMRE mitochondrial membrane potential (MtMP) assay; format: cell-based, human; settings: GI50 drug concentration (FCCP 20 μM)
Method: This was achieved by determining if the overproduction of ROS induced by these complexes impacts mitochondrial activity by altering MtMP. Briefly, there is evidence showing a strong correlation between increased levels of ROS and mitochondrial impairment. […] The MtMP changes recorded are measured as RFU. […] To investigate the MtMP changes in HT29 treated cells, a TMRE-MtMP Assay Kit (Abcam, Cambridge, MA, USA) was used, as previously described. In 96-well plates, 25,000 cells/mL of HT29 colon cells in DMEM were seeded. Cells were treated with a GI50 drug concentration for each complex. At 24, 48 or 72 h, cells were washed with PBS and stained with tetramethylrhodamine, ethyl ester (TMRE) (1 μM) and incubated for 30 min. TMRE was then removed, and cells were then re-washed with PBS (0.2% BSA), after which phenol red free media was added. The plates were directly scanned to measure fluorescence (expressed as RFU), using the Glo-Max®-Multimode microplate reader (Promega Corporation, Alexandra, VIC, Australia) at an excitation/emission of 549/575 nm. For the positive control, 20 μM carbonyl cyanide 4-(trifluoromethoxy) phenylhydrazone (FCCP)) was added to the cells and incubated for 10 min. The cells were washed with PBS (0.2% BSA) and stained with TMRE (1 μM) for 30 min; this was removed, and phenol red free media was added, and the final solution was scanned as mentioned above.

[5] = test system: non-tumour-derived MCF10A breast line; parameters: method as in PMID 36142383, PMID 37173934, PMID 36296713; settings: cited from earlier work
HT29 colon cells [6] = test system: HT29 colon cells; parameters: method as in PMID 36142383, PMID 37173934, PMID 36296713; settings: cited from earlier work
HT29 colon cells [7] = experiment: DCFDA cellular ROS production assay; format: cell-based, human; settings: GI50 drug concentration (TBHP 20 μM)
Method: All values are expressed as relative fluorescence units (RFU).
To evaluate the presence of ROS in treated cells, a DCFDA/H2DCFDA-cellular ROS Assay Kit (Abcam, Cambridge, MA, USA) was used, as previously described. A total of 25,000 cells/mL of HT29 cells in DMEM were seeded in 96-well plates. Cells were washed with 1X kit buffer, and then stained with 25 μM 2′,7′-dichlorofluorescein diacetate (DCFH-DA) and incubated for 45 min. DCFH-DA was then removed, and cells were then re-washed with 1X kit buffer, after which phenol red free media was added. Cells were then treated with a GI50 drug concentration for each complex. The plates were directly scanned to measure fluorescence (relative fluorescence units (RFU)) at the time points indicated the Glo-Max®-Multimode microplate reader (Promega Corporation, Alexandra, VIC, Australia) at an excitation/emission of 485/535 nm, which is directly correlated to the DCFH-DA that is deacetylated by cellular esterases and then oxidised by ROS to the fluorescent compound DCF. To generate the positive control (20 μM tert-butyl hydroperoxide (TBHP)), cells were washed with 1X kit buffer, and stained with DCFDA (25 μM) for 45 min; this was removed and TBHP was added in phenol red free media, and the resulting solution was scanned as described above.

| Compound | GI50 [1] [nM] | GI50 (HT29 colon) [nM] | GI50 [2] [nM] | GI50 (H460 lung) [nM] | GI50 (Du145 prostate) [nM] | GI50 (A431 skin) [nM] | GI50 (BE2-C neuroblastoma) [nM] | GI50 (SJ-G2 glioblastoma) [nM] | GI50 (MCF-7 breast) [nM] | GI50 (MIA pancreas) [nM] | GI50 (U87 glioblastoma) [nM] | GI50 (A2780 ovarian) [nM] | HDAC Inhibition at 72 h [3] | MtMP Changes (HT29 colon cells [4]; 24 h, control 542 ± 4) [RFU] | MtMP Changes (HT29 colon cells [4]; 48 h, control 507 ± 11) [RFU] | MtMP Changes (HT29 colon cells [4]; 72 h, control 449 ± 10) [RFU] | GI50 [5] [nM] | ROS Production (HT29 colon cells [6]; 24 h) [RFU] | ROS Production (HT29 colon cells [6]; 48 h) [RFU] | ROS Production (HT29 colon cells [6]; 72 h) [RFU] | also measured |
| --- | --- | --- | --- | --- | --- | --- | --- | --- | --- | --- | --- | --- | --- | --- | --- | --- | --- | --- | --- | --- | --- |
| O=C1[O][Pt]2([NH][C@@H]3CCCC[C@H]3[NH]2)[O]C1=O (relative stereo) [Oxaliplatin, trans-L(1R,2R-diaminocyclohexane) oxalatoplatinum(II)] | 1460 ± 320 | 900 ± 200 | 800 ± 100 | 1600 ± 100 | 2900 ± 400 | 4100 ± 500 | 900 ± 200 | 3000 ± 1200 | 500 ± 100 | 900 ± 200 | 1800 ± 200 | 160 ± 100 |  |  |  |  |  |  |  |  |  |
| Cc1cc2cccnc2c2ncccc12.N[C@H]1CCCC[C@@H]1N.[OH][Pt+2][OH] [5MESS(IV)(OH)2] | 443 ± 81 | 60 ± 6 | 130 ± 22 | 60 ± 5 | 41 ± 5 | 360 ± 58 | 1400 ± 300 | 640 ± 70 | 1200 ± 390 | 160 ± 29 | 900 ± 58 | 240 ± 9 | 3119 ± 9 RFU | 311 ± 3 | 291 ± 9 | 228 ± 7 | 130 ± 19 | 234 ± 1 | 323 ± 9 | 335 ± 2 |  |
| Cc1cc2cccnc2c2ncccc12.N[C@H]1CCCC[C@@H]1N.[Pt+2] [5MESS, [Pt^II(5-Mephen)(SS-DACH)]^2+] | 117 ± 12 | 33 ± 4 | 34 ± 2 | 41 ± 5 | 22 ± 3 | 120 ± 25 | 270 ± 38 | 220 ± 10 | 200 ± 12 | 48 ± 2 | 320 ± 26 | 61 ± 10 | 2124 RFU and 2124 ± 21 RFU | 283 ± 4 | 261 ± 9 | 189 ± 11 | 30 ± 2 | 204 ± 4 | 205 ± 3 | 188 ± 3 |  |
| Cc1c(C)c2cccnc2c2ncccc12.N[C@H]1CCCC[C@@H]1N.[OH][Pt+2][OH] [56MESS(IV)(OH)2] | 151 ± 50 | 36 ± 7 | 170 ± 120 | 190 ± 150 | 15 ± 2.6 | 120 ± 22 | 240 ± 22 | 210 ± 45 | 480 ± 140 | 43 ± 2.5 | 190 ± 23 | 59 ± 7 | 3011 ± 23 RFU | 291 ± 9 | 221 ± 5 | 188 ± 5 | 61 ± 7 | 259 ± 3 | 356 ± 11 | 438 ± 7 |  |
| N.N.O=C([O-])C1(C(=O)[O-])CCC1.[Pt+2] [Carboplatin, cis-diammine(1,1-cyclobutanecarboxylato)platinum(II)] | 32200 | > 50000 | > 50000 | 14000 | 15000 | 24000 | 19000 | 5700 ± 200 | > 50000 | > 50000 | > 50000 | 9200 ± 2900 |  |  |  |  | > 50000 |  |  |  |  |
| N#CC(C#N)=NNc1ccc(OC(F)(F)F)cc1 [FCCP, carbonyl cyanide 4-(trifluoromethoxy) phenylhydrazone] |  |  |  |  |  |  |  |  |  |  |  |  |  | 234 ± 3 | 151 ± 7 | 84 ± 5 |  |  |  |  |  |
| N[C@H]1CCCC[C@@H]1N.[OH][Pt+2][OH].c1cnc2c(c1)ccc1cccnc12 [PHENSS(IV)(OH)2] | 3320 ± 880 | 710 ± 300 | 1300 ± 350 | 1700 ± 200 | 310 ± 92 | 4300 ± 530 | 3000 ± 530 | 1700 ± 350 | 16000 | 3400 ± 2200 | 4900 ± 610 | 800 ± 84 | 4107 ± 19 RFU | 328 ± 7 | 314 ± 6 | 234 ± 11 | 1700 ± 200 | 144 ± 5 | 273 ± 4 | 303 ± 1 |  |
| CC(C)(C)OO [TBHP, tert-butyl hydroperoxide] |  |  |  |  |  |  |  |  |  |  |  |  |  |  |  |  |  |  |  |  | ROS Production (HT29 colon cells [7]; 24 h, control 60 ± 3): 614 ± 21 RFU; ROS Production (HT29 colon cells [7]; 48 h, control 63 ± 4): 477 ± 23 RFU; ROS Production (HT29 colon cells [7]; 72 h, control 85 ± 6): 311 ± 18 RFU |
| CC(/C=C/C(=O)NO)=C\[C@@H](C)C(=O)c1ccc(N(C)C)cc1 [Trichostatin A (TSA), Trichostatin A] |  |  |  |  |  |  |  |  |  |  |  |  | 749 ± 8 RFU |  |  |  |  |  |  |  | HDAC Inhibition at 72 h ([3]; listed as TSA): 749 RFU |
